Measurements from paper PMC9616048, “Thermal proteome profiling reveals Haemonchus orphan protein HCO_011565 as a target of the nematocidal small molecule UMW-868” (Frontiers in Pharmacology, 2022).
Entries after “also recorded” stand apart in the source; their conditions may differ.

Test system: H. contortus xL3s
Experiment: Cell lethality in xL3s (Sytox Green staining)
Type: cell-based, Haemonchus contortus
Protocol: Fluorescence staining was employed to assess the ability of UMW-868 to reduce the viability of H. contortus. The xL3s were dispensed in 96-well plates at a density of 300 xL3 per well, and incubated with compounds UMW-868 or A-3155, non-active analogs of UMW-868, at 50 μM at 38°C, 10% (v/v) CO2 and >90% relative humidity. After 90 h of incubation, H. contortus xL3s were stained with Sytox Green nucleic acid stain (Thermo Fisher Scientific) at the final concentration of 1 µM in LB* in the same 96-well plates and incubated for 1 h at 38°C and 10% (v/v) CO2 with >90% relative humidity. Following the incubation, the viability of larvae was evaluated by measuring the relative fluorescent units (RFU) of xL3s using an Omega FLUOstar microplate reader (BMG Labtech), with excitation and emission wavelengths set at 485 nm and 520 nm, respectively. The 96-well plates containing the stained larvae were returned to the incubator for further 78 h; after a total of 168 h of compound exposure, the stained larvae were examined under an inverted fluorescence microscope (DM IL, Leica) equipped with a green fluorescent protein filter (470/500/525 […]; Leica), and imaged using Leica Application Suite software (Leica).

NC(=O)c1ccc(-c2nc(-c3cccs3)no2)cc1 [Compound A-3155]
lethality / viability of xL3s (in words) (90 h): remained viable; also recorded: non-lethal | dead cells detected microscopically in xL3s (Sytox Green) (168 h of exposure): no dead cells were detected
